Laboratory results reported in ChEMBL document CHEMBL1201862, “PubChem BioAssay data set” (2004).
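96-well plates; 48 h exposure; 5 concentrations. Endpoints by linear interpolation between flanking doses. Not reached: highest tested concentration assigned. At the GI50, growth is halved.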 Active and inactive are the calls of the source. Cut-off read from the data, not from the text of the source: active = GI50 up to about 1.1 µM and inactive = higher.

How the values were obtained:
Assay in all cases: DTP human tumour cell line panel, 48 h
[1] = test system: 786-0
[2] = test system: A498
[3] = test system: A549
[4] = test system: ACHN
[5] = test system: BT-549
[6] = test system: CAKI-1
[7] = test system: CCRF-CEM
[8] = test system: COLO 205
[9] = test system: DU-145
[10] = test system: EKVX
[11] = test system: HCT-116
[12] = test system: HCT-15
[13] = test system: HL-60
[14] = test system: HOP-92
[15] = test system: HT-29
[16] = test system: Hs-578T
[17] = test system: IGROV-1
[18] = test system: K562
[19] = test system: KM12
[20] = test system: LOX IMVI
[21] = test system: M14
[22] = test system: MCF7
[23] = test system: MDA-MB-231
[24] = test system: MDA-MB-435
[25] = test system: MDA-N
[26] = test system: MOLT-4
[27] = test system: NCI-H226
[28] = test system: NCI-H23
[29] = test system: NCI-H460
[30] = test system: NCI-H522
[31] = test system: NCI/ADR-RES
[32] = test system: OVCAR-3
[33] = test system: OVCAR-4
[34] = test system: OVCAR-5
[35] = test system: OVCAR-8
[36] = test system: PC-3
[37] = test system: RPMI-8226
[38] = test system: RXF 393
[39] = test system: SF-268
[40] = test system: SF-295
[41] = test system: SF-539
[42] = test system: SK-MEL-2
[43] = test system: SK-MEL-5
[44] = test system: SK-OV-3
[45] = test system: SN12C
[46] = test system: SNB-19
[47] = test system: SNB-75
[48] = test system: SR
[49] = test system: SW-620
[50] = test system: T47D
[51] = test system: TK-10
[52] = test system: U-251
[53] = test system: UACC-257
[54] = test system: UACC-62
[55] = test system: UO-31
[56] = test system: HCC 2998
[57] = test system: HOP-62
[58] = test system: Malme-3M
[59] = test system: SK-MEL-28

CSc1ncc2c(n1)-c1ccccc1OC2N1CCCC1 (stereo not drawn)
GI50 [1]: > 100 µM (inactive) | GI50 [2]: 11.8 µM (inactive) | GI50 [3]: > 100 µM (inactive) | GI50 [4]: 60.8 µM (inactive) | GI50 [5]: 75 µM (inactive) | GI50 [6]: 31 µM (inactive) | GI50 [7]: 58.5 µM (inactive) | GI50 [8]: > 100 µM (inactive) | GI50 [9]: > 100 µM (inactive) | GI50 [10]: 42.1 µM (inactive) | GI50 [11]: > 100 µM (inactive) | GI50 [12]: 49.9 µM | GI50 [13]: 52.7 µM (inactive) | GI50 [14]: > 100 µM (inactive) | GI50 [15]: > 100 µM (inactive) | GI50 [16]: 39.1 µM (inactive) | GI50 [17]: 47.8 µM (inactive) | GI50 [18]: 60.1 µM (inactive) | GI50 [19]: > 100 µM (inactive) | GI50 [20]: > 100 µM (inactive) | GI50 [21]: > 100 µM (inactive) | GI50 [22]: 71.3 µM (inactive) | GI50 [23]: > 100 µM (inactive) | GI50 [24]: > 100 µM (inactive) | GI50 [25]: > 100 µM (inactive) | GI50 [26]: 79.8 µM (inactive) | GI50 [27]: 31 µM (inactive) | GI50 [28]: > 100 µM (inactive) | GI50 [29]: > 100 µM (inactive) | GI50 [30]: 36.6 µM (inactive) | GI50 [31]: 93.8 µM (inactive) | GI50 [32]: 47.4 µM (inactive) | GI50 [33]: 21 µM (inactive) | GI50 [34]: > 100 µM (inactive) | GI50 [35]: > 100 µM (inactive) | GI50 [36]: 57.3 µM (inactive) | GI50 [37]: 50.9 µM (inactive) | GI50 [38]: 64.6 µM (inactive) | GI50 [39]: > 100 µM (inactive) | GI50 [40]: > 100 µM (inactive) | GI50 [41]: 84.5 µM (inactive) | GI50 [42]: > 100 µM (inactive) | GI50 [43]: > 100 µM (inactive) | GI50 [44]: > 100 µM (inactive) | GI50 [45]: 71 µM (inactive) | GI50 [46]: > 100 µM (inactive) | GI50 [47]: 41.7 µM (inactive) | GI50 [48]: > 100 µM (inactive) | GI50 [49]: 94.8 µM (inactive) | GI50 [50]: 35.8 µM (inactive) | GI50 [51]: 44.1 µM (inactive) | GI50 [52]: 68.5 µM (inactive) | GI50 [53]: > 100 µM (inactive) | GI50 [54]: 26.4 µM (inactive) | GI50 [55]: 42.4 µM (inactive)

Cc1ccc([N+](=O)[O-])cc1S(=O)(=O)Nc1ccc(C2=NNC(c3ccccc3)C2)cc1 (stereo not drawn)
GI50 [1]: 20.8 µM (inactive) | GI50 [2]: 13.2 µM (inactive) | GI50 [3]: 19.1 µM (inactive) | GI50 [4]: 16.3 µM (inactive) | GI50 [5]: 18.4 µM (inactive) | GI50 [6]: 11.9 µM (inactive) | GI50 [8]: 16.9 µM (inactive) | GI50 [9]: 27.9 µM (inactive) | GI50 [10]: 21 µM (inactive) | GI50 [56]: 18.7 µM (inactive) | GI50 [11]: 13.1 µM (inactive) | GI50 [12]: 10.4 µM | GI50 [13]: 16.4 µM (inactive) | GI50 [57]: 11.5 µM (inactive) | GI50 [14]: 33.3 µM (inactive) | GI50 [15]: 27.4 µM (inactive) | GI50 [16]: 22.5 µM (inactive) | GI50 [17]: 16.3 µM (inactive) | GI50 [18]: 6.73 µM (inactive) | GI50 [19]: 13.4 µM (inactive) | GI50 [21]: 21.4 µM (inactive) | GI50 [22]: 14.9 µM (inactive) | GI50 [23]: 15.3 µM (inactive) | GI50 [24]: 17.1 µM (inactive) | GI50 [25]: 23.9 µM (inactive) | GI50 [26]: 6.64 µM (inactive) | GI50 [58]: 17 µM (inactive) | GI50 [27]: 32.9 µM (inactive) | GI50 [28]: 15.8 µM (inactive) | GI50 [29]: 15.1 µM (inactive) | GI50 [30]: 13.8 µM (inactive) | GI50 [31]: 21.1 µM (inactive) | GI50 [32]: 4.74 µM (inactive) | GI50 [33]: 14.5 µM (inactive) | GI50 [34]: 53.2 µM (inactive) | GI50 [35]: 26.2 µM (inactive) | GI50 [36]: 16.7 µM (inactive) | GI50 [37]: 7.24 µM (inactive) | GI50 [38]: 8.36 µM (inactive) | GI50 [39]: 16.8 µM (inactive) | GI50 [40]: 3.02 µM (inactive) | GI50 [41]: 28.1 µM (inactive) | GI50 [59]: 25.2 µM (inactive) | GI50 [42]: 18.5 µM (inactive) | GI50 [43]: 14.7 µM (inactive) | GI50 [44]: 15.5 µM (inactive) | GI50 [45]: 19.5 µM (inactive) | GI50 [46]: 30.9 µM (inactive) | GI50 [47]: 24.8 µM (inactive) | GI50 [48]: 15.1 µM (inactive) | GI50 [49]: 25.4 µM (inactive) | GI50 [50]: 4.23 µM (inactive) | GI50 [51]: 19.8 µM (inactive) | GI50 [53]: 15.8 µM (inactive) | GI50 [54]: 9.33 µM (inactive) | GI50 [55]: 24.9 µM (inactive)

CSc1cc(Cl)c(C(=O)Nc2ccccc2)cc1S(=O)(=O)n1ccnc1O
GI50 [1]: > 100 µM (inactive) | GI50 [2]: > 100 µM (inactive) | GI50 [3]: > 100 µM (inactive) | GI50 [4]: > 100 µM (inactive) | GI50 [5]: > 100 µM (inactive) | GI50 [6]: > 100 µM (inactive) | GI50 [7]: > 100 µM (inactive) | GI50 [8]: > 100 µM (inactive) | GI50 [9]: > 100 µM (inactive) | GI50 [10]: > 100 µM (inactive) | GI50 [56]: > 100 µM (inactive) | GI50 [11]: > 100 µM (inactive) | GI50 [12]: > 100 µM | GI50 [13]: > 100 µM (inactive) | GI50 [57]: > 100 µM (inactive) | GI50 [14]: > 100 µM (inactive) | GI50 [15]: > 100 µM (inactive) | GI50 [16]: > 100 µM (inactive) | GI50 [17]: > 100 µM (inactive) | GI50 [18]: > 100 µM (inactive) | GI50 [19]: > 100 µM (inactive) | GI50 [20]: > 100 µM (inactive) | GI50 [21]: > 100 µM (inactive) | GI50 [22]: > 100 µM (inactive) | GI50 [23]: > 100 µM (inactive) | GI50 [24]: > 100 µM (inactive) | GI50 [25]: > 100 µM (inactive) | GI50 [26]: > 100 µM (inactive) | GI50 [58]: > 100 µM (inactive) | GI50 [28]: > 100 µM (inactive) | GI50 [29]: > 100 µM (inactive) | GI50 [30]: > 100 µM (inactive) | GI50 [31]: > 100 µM (inactive) | GI50 [32]: > 100 µM (inactive) | GI50 [33]: > 100 µM (inactive) | GI50 [34]: > 100 µM (inactive) | GI50 [35]: > 100 µM (inactive) | GI50 [36]: > 100 µM (inactive) | GI50 [37]: > 100 µM (inactive) | GI50 [38]: > 100 µM (inactive) | GI50 [39]: > 100 µM (inactive) | GI50 [41]: > 100 µM (inactive) | GI50 [59]: > 100 µM (inactive) | GI50 [42]: > 100 µM (inactive) | GI50 [43]: > 100 µM (inactive) | GI50 [44]: > 100 µM (inactive) | GI50 [45]: > 100 µM (inactive) | GI50 [46]: > 100 µM (inactive) | GI50 [47]: > 100 µM (inactive) | GI50 [48]: > 100 µM (inactive) | GI50 [49]: > 100 µM (inactive) | GI50 [50]: > 100 µM (inactive) | GI50 [51]: > 100 µM (inactive) | GI50 [52]: > 100 µM (inactive) | GI50 [53]: > 100 µM (inactive) | GI50 [54]: > 100 µM (inactive) | GI50 [55]: > 100 µM (inactive)
